Laboratory results: PMC5577655 (mSphere, 2017)
Like-named read-outs stand apart in the source and are kept apart here.

Columns and labels:
[1] = molecular target: T1, lysyl-tRNA synthetase 1 (LdLysRS-1) (Leishmania donovani, UniProt A0A3Q8IA00); test: malachite green aminoacylation assay with recombinant enzyme; thermal shift of ~[…]°C; type: biochemical
T1 construct: gene LdCL_150007600; full-length LdLysRS-1 (586 aa), N-terminal His6 tag

[2] = molecular target: T1, lysyl-tRNA synthetase 1 (LdLysRS-1); test: as above; type: biochemical; remark: listed apart in the source

T1 sequence (A0A3Q8IA00 entry or part of it): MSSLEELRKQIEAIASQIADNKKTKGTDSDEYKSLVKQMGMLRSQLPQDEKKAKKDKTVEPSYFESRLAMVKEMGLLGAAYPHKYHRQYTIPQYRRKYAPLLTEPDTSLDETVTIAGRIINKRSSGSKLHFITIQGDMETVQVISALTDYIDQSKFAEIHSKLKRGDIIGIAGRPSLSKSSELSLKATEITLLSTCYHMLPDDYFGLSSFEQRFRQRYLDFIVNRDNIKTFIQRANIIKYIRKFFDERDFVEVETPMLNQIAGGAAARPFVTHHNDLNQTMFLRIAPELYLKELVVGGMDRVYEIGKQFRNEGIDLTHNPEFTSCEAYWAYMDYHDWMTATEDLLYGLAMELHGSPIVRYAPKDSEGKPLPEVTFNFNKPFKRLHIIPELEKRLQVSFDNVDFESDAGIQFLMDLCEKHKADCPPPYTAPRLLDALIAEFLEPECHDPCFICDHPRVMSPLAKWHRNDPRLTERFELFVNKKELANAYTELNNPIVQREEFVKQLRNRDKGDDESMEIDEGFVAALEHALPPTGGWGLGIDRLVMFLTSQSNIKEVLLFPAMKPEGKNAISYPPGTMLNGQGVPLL

C[C@H]1CCC[C@H](C[C@H]2Cc3cc(O)cc(O)c3C(=O)O2)O1 [cladosporin]
IC50 [1]: ~4.07 µM

C[C@@H]1CCC[C@H](C[C@@H]2Cc3cc(O)cc(O)c3C(=O)O2)O1 [3-epi-isocladosporin]
IC50 [2]: ~25.5 µM
